Data: patent US20190046552A1, “COMPOSITIONS AND METHODS FOR THE TREATMENT OF HCV INFECTION” (priority 2015, published 2019)
Like-named read-outs stand apart in the source and are kept apart here.

Legend:
[1] = Part B (MAD): plasma PK of Formula (IIa) and its metabolites after once-daily oral Formula (IIa) for 7 days, fasted; format: in vivo, human; conditions: for Cmax / half-life / AUC(0-t) / Tmax / AUC(0-inf): human, in vivo
Protocol: Part B was a blinded, randomized, placebo-controlled MAD study consisting of four cohorts of eight subjects randomized 6:2 to receive Formula (IIa) or placebo. […] To control for the possible effect of the IL28b genotype, the number of subjects with CC alleles was capped at three per cohort.
The starting dose was determined by the SRC based on review of all safety and any available PK/PD data from Part A. All subjects were dosed in the fasted state with Formula (IIa) daily, from Day 1 until […]. All subjects had nothing by mouth other than water for at least 10 hours prior to daily dosing and for 4 hours thereafter. In Part B, all subjects were administered the study medication orally with approximately 240 mL of water at the same time every day (+/−10 minutes).
A subset of blood samples shown in Table 3 above was used for the PK evaluation of plasma trough concentrations (Table 4). In addition, blood sample assessment of antiviral response was collected according to the following sampling schedule for Part B (Table 4).
All plasma PK calculations were performed using actual time points calculated relative to the time of last drug administration.
PK analysis was conducted for all enrolled subjects that received any dose of Formula (IIa) with sufficient plasma sample data to assess PK parameters. […] Data analysis was performed using a validated version of WinNonlin® Enterprise (Version 5.2) software, and summary tables and figures were generated using a validated version of WinNonlin® Autopilot™ (Version 1.1.1) and other reporting tools, including SigmaPlot®.

[2] = test system: HCV replicon cell line AVA5 [sub-genomic (CON1), genotype 1b]; assay: 3-day HCV replicon antiviral assay (blot hybridization of intracellular HCV RNA), alone and with sofosbuvir; format: cell-based; conditions: Hepatitis C virus, Ava5, 72 h, read-out: IC50 (intracellular HCV RNA)

CO[C@H]1C(OP(=O)(OC[C@H]2O[C@@H](n3cnc4c(N)ncnc43)CC2O)SCOC(=O)OC(C)C)[C@@H](CO)O[C@H]1n1ccc(=O)[nH]c1=O (stereo partly drawn) [Formula (IIa)]
Cmin ([1]; 200 mg Formula (IIa) QD oral, fasted, Day 7, plasma, arithmetic mean (CV %)): 0.00 (NC) ng/ml
Tmin ([1]; 200 mg Formula (IIa) QD oral, fasted, Day 7, plasma, median (min, max)): 0.00 h
Cmin ([1]; 400 mg Formula (IIa) QD oral, fasted, Day 7, plasma, arithmetic mean (CV %)): 0.00 (NC)^ ng/ml
Tmin ([1]; 400 mg Formula (IIa) QD oral, fasted, Day 7, plasma, median (min, max)): 0.00 h
Cmin ([1]; 900 mg Formula (IIa) QD oral, fasted, Day 7, plasma, arithmetic mean (CV %)): 0.00 (NC) ^ ng/ml
Tmin ([1]; 900 mg Formula (IIa) QD oral, fasted, Day 7, plasma, median (min, max)): 0.00 h
Cmax ([1]; 200 to 900 mg Formula (IIa), Days 1 and 7, read-out: Cmax range): 0.531 to 6.66 ng/mL
half-life ([1]; Day 1, 400 mg and 900 mg QD doses, read-out: mean plasma t1/2 range): 0.963 to 1.05 h
AUC(0-t) ([1]; Day 1, 200-900 mg Formula (IIa) QD, read-out: mean AUC0-24 range across dose levels): 0.512 to 7.91 ng·h/mL
Cmax ([1]; Day 1, 200-900 mg Formula (IIa) QD, read-out: mean Cmax range across dose levels): 0.531 to 3.75 ng/mL
Tmax ([1]; Day 1, 200-900 mg Formula (IIa) QD, read-out: median Tmax, range across dose levels): 1 to 1.51 h
half-life ([1]; Day 7, 400 mg and 900 mg QD doses, read-out: mean plasma t1/2 range): 0.684 to 1.07 h
AUC(0-t) ([1]; Day 7, 200-900 mg Formula (IIa) QD, read-out: mean AUC0-24 range across dose levels): 0.77 to 13.7 ng·h/mL
Cmax ([1]; Day 7, 200-900 mg Formula (IIa) QD, read-out: mean Cmax range across dose levels): 0.885 to 6.66 ng/mL
Tmax ([1]; Day 7, 200-900 mg Formula (IIa) QD, read-out: median Tmax, range across dose levels): 1 to 1.28 h
half-life ([1]; Days 1 and 7, across dose levels, read-out: terminal half-life (t1/2), range of means): 0.684 to 1.07 h
AUC(0-t) ([1]; po, 200 mg, 200 mg Formula (IIa) QD oral, fasted, Day 1, plasma, arithmetic mean (CV %), read-out: AUC0-24): 0.512 ng·h/mL
AUC(0-t) ([1]; po, 200 mg, 200 mg Formula (IIa) QD oral, fasted, Day 1, plasma, arithmetic mean (CV %), read-out: AUC0-t): 0.393 ng·h/mL
Cmax ([1]; po, 200 mg, 200 mg Formula (IIa) QD oral, fasted, Day 1, plasma, arithmetic mean (CV %), read-out: Cmax): 0.531 ng/mL
Tmax ([1]; po, 200 mg, 200 mg Formula (IIa) QD oral, fasted, Day 1, plasma, median (min, max), read-out: Tmax): 1 h
AUC(0-t) ([1]; po, 200 mg, 200 mg Formula (IIa) QD oral, fasted, Day 7, plasma, arithmetic mean (CV %), footnote: AUC0-24 = AUC0-t on Day 7, read-out: AUC0-24): 0.77 ng·h/mL
AUC(0-t) ([1]; po, 200 mg, 200 mg Formula (IIa) QD oral, fasted, Day 7, plasma, arithmetic mean (CV %), read-out: AUC0-t): 1.41 ng·h/mL
Cmax ([1]; po, 200 mg, 200 mg Formula (IIa) QD oral, fasted, Day 7, plasma, arithmetic mean (CV %), read-out: Cmax): 0.885 ng/mL
Tmax ([1]; po, 200 mg, 200 mg Formula (IIa) QD oral, fasted, Day 7, plasma, median (min, max), read-out: Tmax): 1 h
AUC(0-t) ([1]; po, 400 mg, 400 mg Formula (IIa) QD oral, fasted, Day 1, plasma, arithmetic mean (CV %), read-out: AUC0-24): 7.91 ng·h/mL
AUC(0-t) ([1]; po, 400 mg, 400 mg Formula (IIa) QD oral, fasted, Day 1, plasma, arithmetic mean (CV %), read-out: AUC0-t): 3.27 ng·h/mL
Cmax ([1]; po, 400 mg, 400 mg Formula (IIa) QD oral, fasted, Day 1, plasma, arithmetic mean (CV %), read-out: Cmax): 2.13 ng/mL
half-life ([1]; po, 400 mg, 400 mg Formula (IIa) QD oral, fasted, Day 1, plasma, arithmetic mean (CV %), read-out: t1/2 (converted)): 1.05 h
Tmax ([1]; po, 400 mg, 400 mg Formula (IIa) QD oral, fasted, Day 1, plasma, median (min, max), read-out: Tmax): 1.51 h
AUC(0-t) ([1]; po, 400 mg, 400 mg Formula (IIa) QD oral, fasted, Day 7, plasma, arithmetic mean (CV %), footnote: AUC0-24 = AUC0-t on Day 7, read-out: AUC0-24): 2.71 ng·h/mL
AUC(0-t) ([1]; po, 400 mg, 400 mg Formula (IIa) QD oral, fasted, Day 7, plasma, arithmetic mean (CV %), read-out: AUC0-t): 3.1 ng·h/mL
Cmax ([1]; po, 400 mg, 400 mg Formula (IIa) QD oral, fasted, Day 7, plasma, arithmetic mean (CV %), read-out: Cmax): 2.52 ng/mL
half-life ([1]; po, 400 mg, 400 mg Formula (IIa) QD oral, fasted, Day 7, plasma, arithmetic mean (CV %), read-out: t1/2 (converted)): 0.684 h
Tmax ([1]; po, 400 mg, 400 mg Formula (IIa) QD oral, fasted, Day 7, plasma, median (min, max), read-out: Tmax): 1.28 h
AUC(0-t) ([1]; po, 900 mg, 900 mg Formula (IIa) QD oral, fasted, Day 1, plasma, arithmetic mean (CV %), read-out: AUC0-24): 4.58 ng·h/mL
AUC(0-t) ([1]; po, 900 mg, 900 mg Formula (IIa) QD oral, fasted, Day 1, plasma, arithmetic mean (CV %), read-out: AUC0-t): 5.31 ng·h/mL
Cmax ([1]; po, 900 mg, 900 mg Formula (IIa) QD oral, fasted, Day 1, plasma, arithmetic mean (CV %), read-out: Cmax): 3.75 ng/mL
half-life ([1]; po, 900 mg, 900 mg Formula (IIa) QD oral, fasted, Day 1, plasma, arithmetic mean (CV %), read-out: t1/2 (converted)): 0.963 h
Tmax ([1]; po, 900 mg, 900 mg Formula (IIa) QD oral, fasted, Day 1, plasma, median (min, max), read-out: Tmax): 1.04 h
AUC(0-t) ([1]; po, 900 mg, 900 mg Formula (IIa) QD oral, fasted, Day 7, plasma, arithmetic mean (CV %), footnote: AUC0-24 = AUC0-t on Day 7, read-out: AUC0-24): 13.7 ng·h/mL
AUC(0-t) ([1]; po, 900 mg, 900 mg Formula (IIa) QD oral, fasted, Day 7, plasma, arithmetic mean (CV %), read-out: AUC0-t): 9.39 ng·h/mL
Cmax ([1]; po, 900 mg, 900 mg Formula (IIa) QD oral, fasted, Day 7, plasma, arithmetic mean (CV %), read-out: Cmax): 6.66 ng/mL
half-life ([1]; po, 900 mg, 900 mg Formula (IIa) QD oral, fasted, Day 7, plasma, arithmetic mean (CV %), read-out: t1/2 (converted)): 1.07 h
Tmax ([1]; po, 900 mg, 900 mg Formula (IIa) QD oral, fasted, Day 7, plasma, median (min, max), read-out: Tmax): 1.25 h
AUC(0-inf) ([1]; 400 mg Formula (IIa) QD oral, fasted, Day 1, plasma, arithmetic mean (CV %)): 8.04 ng·h/mL
AUC(0-inf) ([1]; 900 mg Formula (IIa) QD oral, fasted, Day 1, plasma, arithmetic mean (CV %)): 7.25 ng·h/mL
mean trough levels ([1]; multiple once daily oral Formula (IIa) QD for 7 days, fasted): BLQ
IC50 [2]: 31.7 nM
